Laboratory results reported in PubChem BioAssay (NCI).
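Step 1: Grow cells in 96-well plates. Step 2: Expose to compound for 48 hours at 5 concentrations. Step 3: Interpolate endpoints linearly; if unreached, use highest concentration. Here, GI50 denotes the concentration required for 50% inhibition of growth. TGI marks complete inhibition of growth.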

Columns and labels:
Test in all cases: NCI-60 cell line screen, 48 h
T-47D breast = test system: T-47D breast
SF-539 CNS = test system: SF-539 CNS
BT-549 breast = test system: BT-549 breast
SN12C renal = test system: SN12C renal
UO-31 renal = test system: UO-31 renal
HOP-62 NSCLC = test system: HOP-62 NSCLC
SW-620 colon = test system: SW-620 colon
OVCAR-5 ovarian = test system: OVCAR-5 ovarian
UACC-257 melanoma = test system: UACC-257 melanoma
786-0 renal = test system: 786-0 renal
SK-OV-3 ovarian = test system: SK-OV-3 ovarian

Compound | TGI (T-47D breast) [µM] | TGI (SF-539 CNS) [µM] | TGI (BT-549 breast) [µM] | TGI (SN12C renal) [µM] | TGI (UO-31 renal) [µM] | TGI (HOP-62 NSCLC) [µM] | TGI (SW-620 colon) [µM] | TGI (OVCAR-5 ovarian) [µM] | TGI (UACC-257 melanoma) [µM] | TGI (786-0 renal) [µM] | TGI (SK-OV-3 ovarian) [µM] | GI50 (T-47D breast) [µM] | GI50 (SN12C renal) [µM] | GI50 (SW-620 colon) [µM] | GI50 (UACC-257 melanoma) [µM]
CCOC(=O)c1c(N2CCOCC2)[nH]c(=O)c(C(c2ccco2)c2c(O)c(C(=O)OCC)c(N3CCOCC3)[nH]c2=O)c1O | > 100 | > 100 | > 100 | > 100 | > 100 | > 100 | > 100 | > 100 | > 100 | > 100 | > 100 | – | – | – | –
CC(=O)Nc1ccc(C2SCc3nc4ccccc4n32)cc1 (stereo not drawn) | > 100 | > 100 | > 74.6 | > 100 | > 100 | > 100 | > 100 | > 100 | > 100 | > 100 | > 100 | – | – | – | –
CCCCCCCCCCCCC(O)[C@H]1CC[C@H](C(O)CCCCCC(=O)CCCCC2CC(C(C)=O)C(=O)O2)O1 (stereo partly drawn) | > 41.5 | 35.6 | 59.5 | 29 | 26.9 | 26.6 | > 100 | 50 | 19.1 | 52.1 | 28 | 3.84 | 12.9 | 4.08 | 1.3
Nc1onc2c1Cc1c(noc1N)-c1ccccc1-2 | > 100 | > 100 | 50.4 | > 100 | > 100 | > 100 | > 100 | > 100 | > 100 | > 100 | > 100 | – | – | – | –
COCN1C(=O)[C@@H]2CCCN2C(=O)c2cc(N)ccc21 | > 100 | > 100 | > 100 | > 100 | > 100 | > 100 | > 100 | > 100 | > 100 | > 100 | > 100 | – | – | – | –
C=CC(Cl)(CBr)CCC(Br)C(C)(C)Cl (stereo not drawn) | 39.6 | 30.5 | 38.6 | 48.4 | 29.3 | 30.6 | 26.2 | 31.1 | 27.5 | 28.1 | > 100 | – | – | – | –
COc1cc(/C=C/C(=O)C2(C(=O)/C=C/c3cc(OC)c(OC)c(OC)c3)CCCCC2)cc(OC)c1OC | > 100 | 47.8 | 91.9 | > 100 | > 100 | > 100 | > 100 | > 100 | > 100 | > 100 | > 100 | – | – | – | –
N[C@H]1CCCC[C@@H]1N1C(=O)c2ccccc2C1(O)c1ccc(Cl)cc1 (stereo partly drawn) | 14.7 | 25 | 28.8 | 27 | 24.2 | 29.6 | 24.2 | 28.6 | 11.7 | 26.4 | 29.8 | – | – | – | –
Cc1ccc(NC(=O)c2cc(S(=O)(=O)Nc3nc4ncccc4[nH]3)c(SSc3cc(Cl)c(C(=O)Nc4ccc(C)cc4)cc3S(=O)(=O)Nc3nc4ncccc4[nH]3)cc2Cl)cc1 | > 100 | > 100 | > 100 | > 100 | > 100 | > 100 | > 100 | > 100 | > 100 | > 100 | > 100 | – | – | – | –
O=C(NCCCCCCNC(=O)c1cc(-c2ccccc2)nc2ccccc12)c1cc(-c2ccccc2)nc2ccccc12 | > 100 | > 100 | > 100 | > 100 | > 100 | > 100 | > 100 | > 100 | > 100 | > 100 | > 100 | – | – | – | –
CCC(=O)Nc1ccc(N2C(=O)C(Cl)C2c2ccc(SC)cc2)cc1 (stereo not drawn) | > 100 | > 100 | > 100 | > 100 | > 100 | > 100 | > 100 | > 100 | > 100 | > 100 | > 100 | – | – | – | –
O=[N+]([O-])c1cc(-c2nc(-c3ccccc3)c(-c3ccccc3)[nH]2)c(O)c([N+](=O)[O-])c1 | 68.3 | 41.5 | 59.8 | 77.4 | 33.4 | 43.4 | 90.8 | 50.3 | 50.9 | 48.6 | 40.6 | – | – | – | –
N#Cc1ccc(-n2c3ccccc3c3ccc4c(c32)C(=O)C=CC4=O)cc1 | > 100 | 18.5 | 25.3 | 14.2 | 3.02 | 30.8 | 3.31 | 34.8 | 13.9 | 3.16 | 27.3 | – | – | – | –
OCCNCNc1nc(NCNCCO)nc(N(CNCCO)CNCCO)n1 | 61.1 | 41.3 | 46 | 60.8 | > 73.9 | 43.2 | > 54 | 21 | 40 | 36.5 | > 85.9 | – | – | – | –
COC(=O)c1ccccc1C1CN=NC12Cc1cc(C)ccc1C2=O (stereo not drawn) | > 100 | > 100 | > 100 | > 100 | > 100 | > 100 | > 100 | > 100 | > 100 | > 100 | > 100 | – | – | – | –
CCCCn1c2c(n(CCCC)c1=S)-c1c(n(CCCC)c(=S)n1CCCC)SSc1c(n(CCCC)c(=S)n1CCCC)-c1c(n(CCCC)c(=S)n1CCCC)SSc1c(n(CCCC)c(=S)n1CCCC)-c1c(n(CCCC)c(=S)n1CCCC)SS2 | 9.51 | > 50 | > 50 | > 50 | 16.5 | > 50 | > 14.8 | 25.4 | > 50 | > 50 | > 50 | – | – | – | –
Cc1ccnc(NC(NC(=O)c2ccccc2)(C(F)(F)F)C(F)(F)F)c1 | > 100 | > 100 | > 100 | > 100 | > 100 | > 100 | > 100 | > 100 | > 100 | > 100 | > 100 | – | – | – | –
CCOC(=O)CCC(NC(=O)c1ccc(OCc2ccc3nc(-c4ccccc4)c(Cl)nc3c2)cc1)C(=O)OCC (stereo not drawn) | > 31.6 | 28.7 | > 31.6 | > 100 | > 31.6 | > 31.6 | > 31.6 | > 31.6 | > 31.6 | > 31.6 | > 100 | – | – | – | –
CCCCCCCCCCNC(=O)CCC(NC(=O)c1ccc(N(C)Cc2cnc3nc(N)nc(N)c3n2)cc1)C(=O)NCCCCCCCCCC (stereo not drawn) | 40.3 | 15.3 | 26.3 | > 57.2 | > 100 | > 95.7 | 13.5 | 66.1 | > 60.1 | 13.5 | 65.3 | – | – | – | –
CC(C)(C)OC(=O)N1C(c2cccnc2)=CC[C@H]2C3CC=C(c4cccnc4)[C@@]3(C)CC[C@@H]21 (stereo partly drawn) | 29.8 | 14.8 | 16.3 | 13 | 17.3 | 16.3 | 15.8 | 28.6 | 10.6 | 16.4 | 15 | – | – | – | –
CO/N=C(\C)CCC#Cc1ccccc1C(=O)OC | > 10 | > 10 | > 10 | > 10 | > 10 | > 10 | > 10 | > 10 | > 10 | > 10 | > 10 | – | – | – | –
CCCC(=O)OC1C(CO)OC(n2cc(F)c(=O)[nH]c2=O)C1F (stereo not drawn) | > 100 | > 100 | > 100 | > 100 | > 100 | > 100 | > 100 | > 100 | > 100 | > 100 | > 100 | – | – | – | –
N#Cc1cnc(N)nc1NCC1(CO)CC(CCc2ccccc2)C1 (stereo not drawn) | > 20.5 | > 100 | > 100 | > 100 | > 100 | > 100 | > 100 | > 100 | > 100 | > 100 | > 100 | – | – | – | –
O=C1C(Cl)=C(Nc2ccc(S(=O)(=O)Nc3ccccn3)cc2)C(=O)c2ccccc21 | 39.7 | 10.3 | 29.8 | 30.4 | 29 | 29.9 | > 73.5 | > 46.9 | 10.3 | 26.1 | 43 | – | – | – | –
